“And” between values parts separate entries of the source, which are not always exact repeats. Identical values can stand only once. “Also recorded” adds a separate entry of the source.
Legend:
SLE patients = assay: SF-36 health-related quality of life, Phase II/III (90-05) trial of LJP 394 vs placebo; format: in vivo, human; settings: for Longitudinal Role Emotional and MCS scores vs placebo: available data only
Procedure: Patients were excluded if they had evidence of a renal flare within three months of screening; were receiving prednisone or prednisone equivalent >20 mg/day, azathioprine >200 mg/day, methotrexate >25 mg/wk and/or cyclophosphamide at any dose within three months of screening; or a serum creatinine level ≧2.5 mg/dL. The study was conducted in the US and Europe according to Good Clinical Practices and all patients provided voluntary informed consent.
A pharmacodynamic assay has been developed to measure the binding affinity of patients' anti-dsDNA antibodies to LJP 394 (Sem D S, et al. (1999) Arch Biochem Biophys 372:62-8; McNeeley Pa., et al. (2001) Lupus 10:526-532). The assay measures the binding of the total serum immunoglobulin G [IgG] fraction to the dsDNA epitope on LJP 394. Binding of IgG to the LJP 394 epitope is measured using surface plasmon resonance and the concentration required to reach half maximal binding is determined. This concentration defines the apparent Kd′ of the binding interaction and reflects the titer-weighted average affinity of the patient's IgG fraction for the LJP 394 epitope. Using this assay, patients were segregated into “high affinity” and “low affinity” subgroups. The segregation value was selected by comparing the affinity measured before exposure to LJP 394 with that following 16 weekly treatments with LJP 394 100 mg or placebo. The high-affinity (HA) population was defined as those patients with antibody binding affinities [Kd′]≦0.8 mg/mL pre-treatment.
In this double-blind, randomized controlled, multicenter trial, intravenously administered LJP 394 was compared with placebo in SLE patients with prior renal involvement. Patients were randomized to receive LJP 394 100 mg as a 2 ml bolus intravenous injection on a weekly basis or placebo for 76 weeks. After initiation of the trial, the protocol was amended to include 8 week off treatment periods alternating with 12 weekly treatments with 50 mg (1 ml bolus injection) LJP 394 or placebo. The first 16 weeks, when patients received 100 mg LJP 394 or placebo weekly, was considered the ‘induction period’, followed by ‘maintenance,’ when patients alternated 8 off and 12 weeks on treatment. The 20-week cycles were to be repeated three times for a total of 60 weeks.
The primary endpoint was the time to a documented renal flare, defined as reproducible increases from baseline in 24-hr proteinuria or serum creatinine >20% or at least 0.3 mg/dL, whichever was greater, accompanied by proteinuria, hematuria and/or red cell casts; or new onset or reproducible increase in hematuria accompanied by either an increase in 24-hr proteinuria or new red cell casts. Secondary outcome measures included the number of renal flares, time to institution of therapy with high dose corticosteroids (HDCC) and/or cyclophosphamide, incidence of treatment with HDCC and/or cyclophosphamide, and number of major SLE flares. HDCC was defined as an increase in oral, intravenous or intramuscular prednisone (or prednisone equivalent) greater than or equal to 15 mg per day from baseline to a dose greater than 20 mg per day for more than two days or any dose exceeding 200 mg in a single day. Topical, intra-articular, intra-lesional, or intra-ocular corticosteroid administration was excluded.
As a secondary objective, the SF-36 was included in the protocol for analysis, on an exploratory basis, to evaluate and interpret changes in health-related quality of life with active treatment compared with placebo. An additional secondary objective was to evaluate changes in health-related quality of life before and after a documented renal flare, with or without prior treatment with HDCC. The SF-36 was administered at baseline and weeks 16, 24, 36, 44, 56, 64, 76, or at early treatment withdrawal. All patients with a baseline and at least one post treatment health-related quality of life assessment were included in the analyses. […]

anti-dsDNA = settings: murine models of SLE; cited from earlier work
[1] = High Affinity, no flares, induction phase
[2] = High affinity population, baseline (pre-treatment)
[3] = High affinity population, baseline to Week 16
[4] = ITT population, baseline (pre-treatment)
[5] = ITT population, baseline to Week 16
[6] = ITT, no flares, induction phase
[7] = Phase II/III, before renal flare
[8] = active treatment, pre vs post renal flare
[9] = patients with documented renal flare (n=37), before flare

With “abetimus sodium (sense GTGTGTGTGTGTGTGTGTGT; antisense CACACACACACACACACACA; sense: DNA, backbone not given here; antisense: DNA, backbone and methylation of C not given here; four deoxynucleotide duplexes bound to triethylene glycol valency platform) [LJP 394, tetravalent conjugate: four (CA)10.(TG)10 double-stranded 20-mer oligonucleotides on a triethylene glycol based valency platform]” as the substance, how does the “Difference in Role Emotional change scores between treatment groups” value (SLE patients; [1]) read?
The value was 13.2.

What about the “Difference in Social Functioning change scores between treatment groups” value (SLE patients; [1]) of the same substance?
Its value is 5.5.

And the “SF-36 MCS Baseline Mean” value (SLE patients; [2])?
Its value is 48.21.

What about the “SF-36 PCS Baseline Mean” value (SLE patients; [2]) of the same substance?
The value was 41.13.

And the “Difference between MCS change scores, active vs placebo” value (SLE patients; [3])?
The value was 2.2 points.

And the “Difference in Role Emotional change scores, active vs placebo” value (SLE patients; [3])?
The value was 15.9 points.

And the “Difference in Role Physical change scores, active vs placebo” value (SLE patients; [3])?
The value was 8.5 points.

And the “Difference in Social Functioning change scores, active vs placebo” value (SLE patients; [3])?
Its value is 5.0.

And the “Magnitude of differences between active and placebo on Role Physical” value (SLE patients; [3])?
The value was 4.4 points.

And the “Mean change in SF-36 Social Functioning score” value (SLE patients; [3])?
Its value is 4.9 points.

What about the “SF-36 MCS Mean % Change” value (SLE patients; [3]) of the same substance?
Its value is 6.10%.

And the “SF-36 MCS Mean Change” value (SLE patients; [3])?
The value was 1.49.

What about the “SF-36 PCS Mean % Change” value (SLE patients; [3]) of the same substance?
The value was 7.17%.

And the “SF-36 PCS Mean Change” value (SLE patients; [3])?
Its value is 1.88.

And the “Patients reporting improvements in Role Emotional scores greater than the MCID” value (SLE patients; ITT population, Week 16)?
The value was 24.2%.

What about the “Baseline Role Emotional score” value (SLE patients; [4]) of the same substance?
Its value is 69.1.

And the “SF-36 MCS Baseline Mean” value (SLE patients; [4])?
Its value is 48.9 and 48.91.

What about the “SF-36 PCS Baseline Mean” value (SLE patients; [4]) of the same substance?
The value was 41.0 and 41.03.

What about the “Difference in MCS change, active vs placebo” value (SLE patients; [5]) of the same substance?
Its value is 2.1.

What about the “Difference in Role Emotional change scores, active vs placebo” value (SLE patients; [5]) of the same substance?
The value was 15.8 points.

And the “Difference in Role Physical change scores, active vs placebo” value (SLE patients; [5])?
The value was 8.9 points.

And the “SF-36 MCS Mean % Change” value (SLE patients; [5])?
Its value is 5.53%.

And the “SF-36 MCS Mean Change” value (SLE patients; [5])?
Its value is 1.29.

What about the “SF-36 PCS Mean % Change” value (SLE patients; [5]) of the same substance?
Its value is 6.70%.

What about the “SF-36 PCS Mean Change” value (SLE patients; [5]) of the same substance?
The value was 1.76.

What about the “Difference in Social Functioning change scores between treatment groups” value (SLE patients; ITT, induction phase (16 weeks)) of the same substance?
The value was 4.7.

And the “Difference in Role Emotional change scores between treatment groups” value (SLE patients; ITT, no HDCC, induction phase)?
Its value is 9.7.

And the “Difference in Social Functioning change scores between treatment groups” value (SLE patients; ITT, no HDCC, induction phase)?
The value was 5.9.

What about the “Difference in Role Emotional change scores between treatment groups” value (SLE patients; [6]) of the same substance?
The value was 12.3.

And the “Difference in Social Functioning change scores between treatment groups” value (SLE patients; [6])?
Its value is 5.0.

What about the “Mean SF-36 domain scores after renal flare compared with placebo” value (SLE patients; Phase II/III, after renal flare) of the same substance?
The value was “remained better than placebo patients; also recorded: higher for LJP394-treated patients in all domains”.

What about the “Mean SF-36 Pain domain score before renal flare” value (SLE patients; [7]) of the same substance?
Its value is 60.13.

What about the “Mean SF-36 domain scores before renal flare compared with placebo” value (SLE patients; [7]) of the same substance?
The value was “better scores than placebo in all domains except pain”.

What about the “Mean SF-36 domain scores before renal flare compared with placebo” value (SLE patients; Phase II/III, before renal flare, listed as LJP394) of the same substance?
The value was “higher for LJP394-treated patients in all domains except pain”.

What about the “SF-36 domain score changes pre/post renal flare compared with placebo” value (SLE patients; Phase II/III, pre vs post renal flare) of the same substance?
Its value is “stabilization or improvement in all but one domain”.

And the “SF-36 domain score changes pre/post renal flare compared with placebo” value (SLE patients; Phase II/III, pre vs post renal flare, listed as LJP394)?
The value was “all eight domains were more favorable; also recorded: all 8 domains were more favorable”.

What about the “Change in Bodily Pain domain score before to after documented renal flare” value (SLE patients; [8]) of the same substance?
Its value is 12.3 points.

What about the “Change in Role Emotional domain score before to after documented renal flare” value (SLE patients; [8]) of the same substance?
Its value is 2.1.

What about the “Change in Social Functioning domain score before to after documented renal flare” value (SLE patients; [8]) of the same substance?
Its value is 2.3.

And the “Change in Vitality domain score before to after documented renal flare” value (SLE patients; [8])?
Its value is 4.1.

What about the “Longitudinal Role Emotional and MCS scores vs placebo” value (SLE patients; after the 16 week induction phase) of the same substance?
Its value is “marked improvement”.

And the “Longitudinal Role Emotional and MCS scores vs placebo” value (SLE patients; by week 36 of treatment)?
Its value is “comparable between the two groups”.

And the “Role Emotional scores difference, LJP 394 versus placebo” value (SLE patients; patients with data pre- and post-renal flares)?
Its value is 20.2 points.

And the “Pre-flare difference between treatment groups in MCS summary score” value (SLE patients; [9])?
Its value is 4.1 points.

And the “Pre-flare difference between treatment groups in Role Emotional score” value (SLE patients; [9])?
The value was 15.0 points.

And the “Pre-flare difference between treatment groups in Vitality score” value (SLE patients; [9])?
The value was 9.5 points.

And the “Post-flare difference in Role Emotional scores favoring active treatment” value (SLE patients; patients with documented renal flare, post-flare)?
Its value is 37.7 points.

What about the “Effect on anti-dsDNA titers” value (anti-dsDNA) of the same substance?
Its value is “selectively reduces anti-dsDNA titers”.

— patent US20040208864A1, “Methods of improving health-related quality of life in individuals with systemic lupus erythematosus” (priority 2002, published 2004)
